What is called IC50 is the concentration that inhibits the measured activity by half. As a reminder, the Ki is the equilibrium dissociation constant of an inhibitor or competing ligand from its target. By Kd is commonly meant the constant that tells how readily two partners part at equilibrium. The low end stands for higher affinity, the high end for lower affinity.

Test [1] addresses T1, β-catenin/BCL9 PPI (Homo sapiens, UniProt P35222).
T1 construct: 40 nM His6-tagged FL-β-catenin
T1 sequence (P35222 1-781): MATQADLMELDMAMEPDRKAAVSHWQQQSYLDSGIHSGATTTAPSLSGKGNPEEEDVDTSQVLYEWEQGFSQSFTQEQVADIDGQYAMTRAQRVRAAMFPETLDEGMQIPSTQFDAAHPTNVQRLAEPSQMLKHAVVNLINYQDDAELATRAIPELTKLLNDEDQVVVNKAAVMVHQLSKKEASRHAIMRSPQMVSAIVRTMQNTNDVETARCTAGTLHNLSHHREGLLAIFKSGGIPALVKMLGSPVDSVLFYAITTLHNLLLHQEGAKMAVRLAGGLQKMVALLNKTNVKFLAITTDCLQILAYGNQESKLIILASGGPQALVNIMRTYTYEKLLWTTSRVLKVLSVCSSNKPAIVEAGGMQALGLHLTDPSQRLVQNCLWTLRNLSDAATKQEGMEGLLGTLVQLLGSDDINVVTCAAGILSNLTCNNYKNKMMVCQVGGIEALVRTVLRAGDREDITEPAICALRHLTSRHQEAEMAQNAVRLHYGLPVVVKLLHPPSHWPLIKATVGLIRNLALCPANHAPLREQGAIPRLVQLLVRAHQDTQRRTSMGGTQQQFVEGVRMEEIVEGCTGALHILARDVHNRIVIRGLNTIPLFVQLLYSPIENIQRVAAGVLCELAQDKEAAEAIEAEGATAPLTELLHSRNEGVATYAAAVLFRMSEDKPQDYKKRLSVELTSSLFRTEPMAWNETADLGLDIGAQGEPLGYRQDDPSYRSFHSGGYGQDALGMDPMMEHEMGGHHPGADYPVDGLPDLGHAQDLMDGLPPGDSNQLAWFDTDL
In words: AlphaScreen competitive inhibition assay of β-catenin/BCL9 PPI. The class given is binding. Conditions: AlphaScreen, mean ± SD; for IC50: 5 nM biotinylated BCL9, 40 nM His6-tagged FL-β-catenin; for Ki: Ki derived from IC50 by method of Nikolovska-Coleska et al. Here is the method: For the competitive inhibition assays of β-catenin/BCL9 PPI, the negative control (equivalent to 0% inhibition) refers to 5.0 nM biotinylated BCL9, 40 nM His6-tagged FL-β-catenin, and 10 μg/mL of donor and acceptor beads in a final volume of 25 μL of assay buffer, but no tested inhibitor present. The positive control (equivalent to 100% inhibition) refers to 5.0 nM biotinylated BCL9 and 10 μg/mL of donor and acceptor beads in a final volume of 25 μL of assay buffer. For the β-catenin/BCL9 assay, 5 nM biotinylated BCL9 and 40 nM His6-tagged FL-β-catenin were incubated in assay buffer at 4° C. for 30 min. Different concentrations of the tested inhibitor were added and incubated in 20 μL of assay buffer at 4° C. for another 1 h. All of the above assay plates were covered and gently mixed on an orbital shaker. The donor and acceptor beads were then added to the plates to a final concentration of 10 μg/mL in 25 μL of assay buffer. The mixture was incubated for 1 h at 4° C. before detection. The IC50 value was determined by nonlinear least-squares analysis of GraphPad Prism 5.0. The Ki values were derived from the IC50 values using a method reported by Nikolovska-Coleska et al. The assays were conducted under the conditions reported by Nikolovska-Coleska et al.'s equation for determining the Ki values. All of the experiments were performed in triplicate. The results were expressed as mean±standard deviation.
(Alpha assays give light when donor and acceptor beads are brought close together.)

Test [2] concerns Wnt/β-catenin signaling transactivation (TOPFlash). Kind of test: Wnt-responsive TOPFlash luciferase reporter assay in SW480 cells. Conditions: for IC50: read-out: TOPFlash luciferase IC50 (estimated), 24 h.
Source text: Wnt-specific TOPFlash/FOPFlash luciferase reporter assays were used to evaluate the effects of these compounds on β-catenin-dependent transcription. For the TOPFlash reporter construct, the firefly luciferase reporter gene was placed downstream of three wild-type Tcf binding sites. For the FOPFlash reporter construct, the firefly luciferase reporter gene was place downstream of three mutant Tcf binding sites. The high expression of firefly luciferase in TOPFlash assays was controlled by tandem Tcf binding sites. The renilla luciferase reporter construct (pCMV-RL) was used as the internal control to normalize luciferase reporter signals and eliminate systematic errors such as cell viability, transfection effect, etc.
SW480 cells were co-transfected with 60 ng of the TOPFlash or FOPFlash firefly luciferase reporter gene and 40 ng of renilla luciferase pCMV-RL normalization reporter. Cells were cultured in DMEM and 10% FBS at 37° C. for 24 h, and different concentrations of inhibitors or DMSO were added. After 24 h, the luciferase reporter activity was measured using the Dual-Glo system (E2940, Promega). Normalized luciferase activity in response to the treatment with inhibitors was compared with that obtained from the cells treated with DMSO. Experiments were performed in triplicate.
For the next test, the system named is SW480 cell. Format: cell-based. Conditions: 72 h. The protocol: Colorectal cancer cell lines SW480 were seeded in 96-well plates at 5×10^3 cells/well, maintained overnight at 37° C., and incubated in the presence of inhibitors at various concentrations. Cell viability was monitored after 72 h using a freshly prepared mixture of one-part phenazine methosulfate (PMS, Sigma) solution (0.92 mg/mL) and 19 parts MTs agent (3-(4,5-dimethylthiazol-2-yl)-5-(3-carboxymethoxyphenyl)-2-(4-sulfophenyl)-2H-tetrazolium, inner salt, Promega) solution (2 mg/mL). Cells were incubated in 10 μL of this solution at 37° C. for 3 h, and A490 was measured. The effect of each compound is expressed as the concentration required to reduce A490 by 50% (IC50) relative to vehicle-treated cells. Experiments were performed in triplicate and repeated for three times.

In a further test the test system is A549 cell. Format: cell-based. The note with it: 72 h.
For the next test, the target named is T2, β-catenin (Homo sapiens, UniProt P35222).
T2 sequence (P35222 1-781): T1 sequence (P35222 1-781)
Kind of test: FP assay, binding of peptides with β-catenin (Kd). Conditions: for Kd: fluorescence polarization, 50 nM FITC labeled peptide, 1×PBS; for decrease in binding affinity relative to 2: Ala substitution.

For test [3], the system named is β-catenin/BCL9 PPI. In words: Co-immunoprecipitation in HCT116 cells. Conditions: 24 h. Format: cell-based. Here is the method:
β-Catenin signaling hyperactive HCT116 cancer cells at […] were treated with different concentrations of the inhibitor for 24 h. Cells were then lysed in buffer containing 50 mM Tris, pH 7.4, 150 mM NaCl, 1% Nonidet […], 2 mM EDTA, and protease inhibitors. The cell lysates were then preadsorbed to A/G plus agarose (sc-2003, Santa Cruz Biotechnology) at 4° C. for 1 h. Preadsorbed lysates were incubated with a specific primary antibody against […] (610153, BD Biosciences) overnight at 4° C. A/G plus agarose was then added to the lysate mixture and incubated for 3 h. The beads were washed four times with the lysis buffer at 4° C. The bound protein was eluted by boiling in the SDS sample buffer and loaded onto 8% SDS polyacrylamide gel for electrophoretic analysis. Separated proteins were transferred onto nitrocellulose membranes for immunoblot analysis. The antibodies against BCL9 (ab37305, Abcam), β-catenin (610153, BD Biosciences), and […] (sc-55529, Santa Cruz Biotechnology, Inc.) were incubated with the membranes, respectively. IRDye 680LT goat anti mouse IgG (827-11080, LiCOR) and IRDye 800CW goat anti rabbit IgG (926-32211, LiCOR) were used as the secondary antibodies. The images were detected by the Odyssey Infrared Imaging System (LiCOR). Experiments were performed in duplicate.

Read-outs that look alike come from different tables or passages of the source.

Consider `CCC(C)[C@@H](CN(CC(=O)N[C@@H](CC(C)C)CN(CC(=O)N[C@@H](CC(C)C)CN(CC(N)=O)S(=O)(=O)Cc1ccccc1)S(=O)(=O)CC(C)C)S(C)(=O)=O)NC(=O)CN(C[C@H](CCCNC(=N)N)NC(=O)CN(C[C@H](CC(C)C)NC(=O)CN(C[C@@H](NC(=O)CN(C[C@H](CC(C)C)NC(=O)CN(C[C@H](CCCNC(=N)N)NC(=O)CN(C[C@H](CCCNC(=N)N)NC(=O)CN(C[C@H](CCC(=O)O)NC(C)=O)S(=O)(=O)CCN)S(C)(=O)=O)S(C)(=O)=O)S(=O)(=O)CCN)C(C)O)S(=O)(=O)CC(C)C)S(=O)(=O)CCN)S(=O)(=O)CC(C)C` (stereo partly drawn) [Peptide 2], for which the IC50 on β-catenin/BCL9 PPI [1] was 740 nM; in test [2], 35.4 µM; with SW480 cell, 12.5 ± 2.86 µM; in the test on A549 cell, 39.9 ± 4.75 µM. In addition, the Ki on β-catenin/BCL9 PPI [1] turned out to be 640 nM. In addition, the Kd at β-catenin amounted to 430 nM.

On to `CCC(C)[C@@H](CN(CC(=O)N[C@@H](CC(C)C)CN(CC(=O)N[C@@H](CC(C)C)CN(CC(N)=O)S(=O)(=O)Cc1ccccc1)S(=O)(=O)CC(C)C)S(C)(=O)=O)NC(=O)CN(C[C@H](CCCNC(=N)N)NC(=O)CN(C[C@H](CC(C)C)NC(=O)CN(C[C@@H](NC(=O)CN(C[C@H](CC(C)C)NC(=O)CN(C[C@H](CCCNC(=N)N)NC(=O)CN(C[C@H](CCCNC(=N)N)NC(=O)CN(C[C@H](CCC(=O)O)NC(C)=O)S(C)(=O)=O)S(C)(=O)=O)S(C)(=O)=O)S(=O)(=O)CCN)C(C)O)S(=O)(=O)CC(C)C)S(=O)(=O)CCN)S(=O)(=O)CC(C)C` (stereo partly drawn) [Peptide 3], for which the IC50 is 1040 ± 210 nM at β-catenin/BCL9 PPI [1], 26.5 µM in test [2], 12.8 ± 2.9 µM with SW480 cell and 43.7 ± 3.62 µM in the test on A549 cell. For the same compound, the Ki at β-catenin/BCL9 PPI [1] was determined as 920 ± 170 nM. Also, the “decrease in binding affinity relative to 2” value at β-catenin is reported as “about 1.5 fold”. For the same compound, on β-catenin, binding was characterised by a dissociation constant (Kd) of 860 nM.

As to `CCC(C)[C@@H](CN(CC(=O)N[C@@H](CC(C)C)CN(CC(=O)N[C@@H](CC(C)C)CN(CC(N)=O)S(=O)(=O)Cc1ccccc1)S(=O)(=O)CC(C)C)S(C)(=O)=O)NC(=O)CN(C[C@H](CCCNC(=N)N)NC(=O)CN(C[C@H](CC(C)C)NC(=O)CN(C[C@@H](NC(=O)CN(C[C@H](CC(C)C)NC(=O)CN(C[C@H](CCCNC(=N)N)NC(=O)CN(C[C@H](C)NC(=O)CN(C[C@H](CCC(=O)O)NC(C)=O)S(=O)(=O)CCN)S(C)(=O)=O)S(C)(=O)=O)S(=O)(=O)CCN)C(C)O)S(=O)(=O)CC(C)C)S(=O)(=O)CCN)S(=O)(=O)CC(C)C` (stereo partly drawn) [Peptide 4], the half-inhibitory concentration (IC50) on β-catenin/BCL9 PPI [1] is 1100 ± 140 nM; in test [2] it was 20.6 µM; in the test with SW480 cell, 16.4 ± 4.4 µM; with A549 cell, 43.2 ± 5.6 µM. Moreover, the affinity on β-catenin/BCL9 PPI [1], expressed as Ki, was 980 ± 110 nM. Also, the “disruption of β-catenin/BCL9 PPI in cells (co-IP)” value in the test with β-catenin/BCL9 PPI [3] was “disrupted the β-catenin/BCL9 PPI in a dose-dependent manner”. Further, the “decrease in binding affinity relative to 2” value on β-catenin is recorded as “about 1.5 fold”. Moreover, the affinity at β-catenin, expressed as Kd, was 820 nM.

Turning to “Ac-SQEQLEHRERSLQTLRDIQRMLF-NH2 [Peptide 1, reference compound]”, the IC50 on β-catenin/BCL9 PPI [1] was 1280 nM; in the test with SW480 cell (SW480 cell, hyperactive β-catenin signaling, read-out: MTS IC50 ± SD), above 200 µM; in the test on A549 cell, above 200 µM. Besides, the Ki on β-catenin/BCL9 PPI [1] was determined as 1130 nM. Further, the “TOPFlash luciferase activity, result in words” value in test [2] was “did not show any activity”. On β-catenin, this compound had a Kd of 970 nM.

Source of the values: patent publication US12415832B2, “B-catenin/B-cell Lymphoma 9 protein-protein interaction inhibiting peptidomimetics” (University of South Florida, priority 2019, dated 2025).
